19 compounds from patent US20240382471A1, “GLUCAGON-LIKE PEPTIDE-1 RECEPTOR MODULATORS AND USES THEREOF” (HEPAGENE THERAPEUTICS (HK) LIMITED, priority 2021, published 2024) can be followed below.

Assay [1] deals with T1, GLP1R (Homo sapiens, UniProt P43220). In words: GLP1R cAMP assay (HTRF cAMP detection, agonist activity). In kind it is cell-based. Set-up: host or cells: Flp-In-293. To be noted: Flp-In-293-GLP1R cells, 30 min at 37° C., read-out: EC50 (nM) Assay 1.
Target sequence in this assay (P43220 24-463, species assumed): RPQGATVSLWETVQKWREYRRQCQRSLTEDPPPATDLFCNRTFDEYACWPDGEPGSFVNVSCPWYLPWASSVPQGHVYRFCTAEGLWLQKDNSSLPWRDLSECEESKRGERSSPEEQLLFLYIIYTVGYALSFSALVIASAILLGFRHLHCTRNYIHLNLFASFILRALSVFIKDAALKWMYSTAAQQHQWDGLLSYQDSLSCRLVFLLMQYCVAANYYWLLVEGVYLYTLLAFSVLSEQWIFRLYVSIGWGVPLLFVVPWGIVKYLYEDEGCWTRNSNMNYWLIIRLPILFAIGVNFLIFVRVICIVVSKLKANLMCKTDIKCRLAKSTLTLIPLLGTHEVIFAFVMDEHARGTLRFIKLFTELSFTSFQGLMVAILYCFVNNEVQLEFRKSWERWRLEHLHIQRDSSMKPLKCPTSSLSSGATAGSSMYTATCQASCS
Assay [2] deals with T1, GLP1R. The experiment in a line: GLP1R/CRE-Luc luciferase reporter gene assay (agonist activity). In kind it is cell-based. Also on record: host or cells: HKE293 (so in the source). Particulars: HKE293-Human GLP1R/CRE-luc cells, 5 h at 37° C., read-out: EC50 (nM) Assay 2. The procedure: GLP1R-mediated agonist activity was determined with a cell-based functional assay utilizing a britelite plus luciferase reporter gene assay system. The stable cell line overexpress GLP1R and target response element. The stimulation with GLP1R agonist results in the upregulation of intracellular cAMP, which regulate the activities of cAMP-response element binding protein (CREB) and CREB-Luc. Reagents and equipment used in the assay are listed below, followed by the protocol.
• 1) Cell Line: HKE293-Human GLP1R/CRE-luc • 2) Complete Medium: DMEM+10% FBS+1×Penicillin-Streptomycin+400 μg/mL G418
• a) Seed HKE293-Human GLP1R/CRE-luc cells at 20,000 cells/well into 384 well assay plate (6007680-50, PE) using complete medium and incubate overnight. • b) Prepare 6×compound working solution with Medium. • c) Add 5 μL 6×compound working solution into cell plate, incubate 5 h at 37° C. • d) Add 20 μl britelite plus Luciferase Assay Reagent into each well of 384-well assay plate. • e) Record the luminescence value on Envision plate reader.
• 3.1% Activity is calculated as follow:
% Activity=(Signalcmpd−SignalAve_VC)/(SignalAve_PC−SignalAve_VC)×100. • 3.2 Calculate EC50 and Plot effect-dose curve of cmpds:
Y=Bottom+(Top−Bottom)/(1+10^((Log EC50−X)*HillSlope)) • X: log of agonist concentration; Y: % Activity.
Target sequence in this assay (P43220 24-463): as the sequence (P43220 24-463, species assumed) above
(In general: Reporter assays use an easily measured gene product as a stand-in for the process of interest.)

Molecules are shown by their SMILES.

One may read the EC50 as the concentration giving half of the maximal effect.

As for `N#Cc1ccc(COc2cccc(C34CCN(Cc5nc6c(F)cc(C(=O)O)cc6n5C[C@@H]5CCO5)CC3C4)n2)c(F)c1` (stereo partly drawn) [Compound 1-10, 2-((6-(6-((4-cyano-2-fluorobenzyl)oxy)pyridin-2-yl)-3-azabicyclo[4.1.0]heptan-3-yl)methyl)-4-fluoro-1-(((S)-oxetan-2-yl)methyl)-1H-benzo[d]imidazole-6-carboxylic acid], the figures for the EC50 at GLP1R [1] and at GLP1R [2] were 0.047 nM and 31.2 nM, respectively. For `N#Cc1ccc(COc2cccc(C34CCN(Cc5nc6ccc(C(=O)O)cc6n5C[C@@H]5CCO5)CC3C4)n2)c(F)c1` (single isomer, unassigned) [Compound 1-1-A] the same measures were 0.028 nM and 48.7 nM.

For the compound `N#Cc1ccc(COc2cccc(C34CCN(Cc5nc6c(F)cc(C(=O)O)cc6n5C[C@@H]5CCO5)CC3C4)n2)c(F)c1` (single isomer, unassigned) [Compound 1-10-A], the EC50 is 0.009 nM at GLP1R [1] and 19.3 nM at GLP1R [2]. With `N#Cc1ccc(COc2cccc(C34CCN(Cc5nc6ccc(C(=O)O)cc6n5C[C@@H]5CCO5)CC3C4)n2)c(F)c1` (stereo partly drawn) [Compound 1-1, 2-[(6-{6-[(4-cyano-2-fluorophenyl)methoxy]pyridin-2-yl}-3-azabicyclo[4.1.0]heptan-3-yl)methyl]-3-[(2S)-oxetan-2-ylmethyl]-1,3-benzodiazole-5-carboxylic acid], the EC50 at GLP1R [1] turned out to be 0.029 nM; on GLP1R [2] it was 80.8 nM.

As to `O=C(O)c1ccc2nc(CN3CCC4(c5cccc(OCc6ccc(Cl)cc6F)n5)CC4C3)n(C[C@@H]3CCO3)c2c1` (stereo partly drawn) [Compound 1-5, 2-((6-(6-((4-chloro-2-fluorobenzyl)oxy)pyridin-2-yl)-3-azabicyclo[4.1.0]heptan-3-yl)methyl)-1-(((S)-oxetan-2-yl)methyl)-1H-benzo[d]imidazole-6-carboxylic acid], the EC50 at GLP1R [1] amounted to 0.03 nM; on GLP1R [2] it was 100 nM. For `N#Cc1ccc(COc2cccc(N3C4CCC3CN(Cc3nc5ccc(C(=O)O)cc5n3C[C@@H]3CCO3)C4)n2)c(F)c1` [Compound 2-29, 2-((−8-(6-((4-cyano-2-fluorobenzyl)oxy)pyridin-2-yl)-3,8-diazabicyclo[3.2.1]octan-3-yl)methyl)-1-(((S)-oxetan-2-yl)methyl)-1H-benzo[d]imidazole-6-carboxylic acid] the same measures were 0.287 nM and above 1000 nM. Taken in the same sequence, the figures for `N#Cc1ccc(COc2cccc(C34CCN(Cc5nc6ccc(C(=O)O)cc6n5C[C@@H]5CCO5)CC3C4)n2)c(F)c1` (single isomer, unassigned) [Compound 1-1-B] were 0.035 nM and 84.9 nM. As for `[2H]C([2H])([2H])Oc1cc(C(=O)O)cc2c1nc(CN1CCC3(c4cccc(OCc5ccc(C#N)cc5OC)n4)CC3C1)n2C[C@@H]1CCO1` (stereo partly drawn) [Compound 1-32, 2-((6-(6-((4-cyano-2-methoxybenzyl)oxy)pyridin-2-yl)-3-azabicyclo[4.1.0]heptan-3-yl)methyl)-4-(methoxy-d3)-1-(((S)-oxetan-2-yl)methyl)-1H-benzo[d]imidazole-6-carboxylic acid], at GLP1R [2], the EC50 is 0.49 nM.

Take `CCn1cncc1Cn1c(CN2CCC3(c4nccc(OCc5ccc(C(F)(F)F)cc5OC)n4)CC3C2)nc2c(OC)cc(C(=O)O)cc21` (stereo not drawn) [Compound 1-48, 1-((1-ethyl-1H-imidazol-5-yl)methyl)-4-methoxy-2-((6-(4-((2-methoxy-4-(trifluoromethyl)benzyl)oxy)pyrimidin-2-yl)-3-azabicyclo[4.1.0]heptan-3-yl)methyl)-1H-benzo[d]imidazole-6-carboxylic acid]: the EC50 at GLP1R [2] worked out at 0.33 nM. Same read-out and setting: to `COc1cc(C#N)ccc1COc1cccc(C23CCN(Cc4nc5c(F)cc(C(=O)O)cc5n4C[C@@H]4CCO4)CC2C3)n1` (stereo partly drawn) [Compound 1-23, 2-((6-(6-((4-cyano-2-methoxybenzyl)oxy)pyridin-2-yl)-3-azabicyclo[4.1.0]heptan-3-yl)methyl)-4-fluoro-1-(((S)-oxetan-2-yl)methyl)-1H-benzo[d]imidazole-6-carboxylic acid] belongs 3.05 nM. On to `N#Cc1ccc(COc2cccc(C34CCN(Cc5nc6c(F)cc(C(=O)O)cc6n5C[C@@H]5CCO5)CC3C4)n2)c(F)c1` (single isomer, unassigned) [Compound 1-10-B], for which the EC50 on GLP1R [1] was determined as 0.021 nM; on GLP1R [2], 47.6 nM.

Regarding `COc1cc(C#N)ccc1COc1cccc(C23CCN(Cc4nc5c(OC(F)(F)F)cc(C(=O)O)cc5n4C[C@@H]4CCO4)CC2C3)n1` (stereo partly drawn) [Compound 1-22, 2-((6-(6-((4-cyano-2-methoxybenzyl)oxy)pyridin-2-yl)-3-azabicyclo[4.1.0]heptan-3-yl)methyl)-1-(((S)-oxetan-2-yl)methyl)-4-(trifluoromethoxy)-1H-benzo[d]imidazole-6-carboxylic acid], the EC50 at GLP1R [2] amounted to 14.4 nM.

As for `COc1cc(C(F)(F)F)ccc1COc1ccnc(C23CCN(Cc4nc5c(OC)cc(C(=O)O)cc5n4C[C@@H]4CCO4)CC2C3)n1` (stereo partly drawn) [Compound 1-34, 4-methoxy-2-((6-(4-((2-methoxy-4-(trifluoromethyl)benzyl)oxy)pyrimidin-2-yl)-3-azabicyclo[4.1.0]heptan-3-yl)methyl)-1-(((S)-oxetan-2-yl)methyl)-1H-benzo[d]imidazole-6-carboxylic acid], the EC50 on GLP1R [2] is 1.06 nM.

`O=C(O)c1ccc2nc(CN3CCC4(c5cccc(OCc6ccc(C(F)(F)F)cc6F)n5)CC4C3)n(C[C@@H]3CCO3)c2c1` (stereo partly drawn) [Compound 1-8, 2-{[6-(6-{[2-fluoro-4-(trifluoromethyl)phenyl]methoxy}pyridin-2-yl)-3-azabicyclo[4.1.0]heptan-3-yl]methyl}-3-[(2S)-oxetan-2-ylmethyl]-1,3-benzodiazole-5-carboxylic acid]: the results for the EC50 at GLP1R [1] and at GLP1R [2] were 0.035 nM and 108 nM, respectively. Take `CCOc1cc(C#N)ccc1COc1ccnc(C23CCN(Cc4nc5c(OC)cc(C(=O)O)cc5n4C[C@@H]4CCO4)CC2C3)n1` (stereo partly drawn) [Compound 1-39, 2-((6-(4-((4-cyano-2-ethoxybenzyl)oxy)pyrimidin-2-yl)-3-azabicyclo[4.1.0]heptan-3-yl)methyl)-4-methoxy-1-(((S)-oxetan-2-yl)methyl)-1H-benzo[d]imidazole-6-carboxylic acid]: at GLP1R [2], the EC50 is 29 nM.

Regarding `N#Cc1ccc(COc2ccnc(N3C4CCC3CN(Cc3nc5ccc(C(=O)O)cc5n3C[C@@H]3CCO3)C4)c2)c(F)c1` [Compound 2-34, 2-((−8-(4-((4-cyano-2-fluorobenzyl)oxy)pyridin-2-yl)-3,8-diazabicyclo[3.2.1]octan-3-yl)methyl)-1-(((S)-oxetan-2-yl)methyl)-1H-benzo[d]imidazole-6-carboxylic acid], the results for the EC50 at GLP1R [1] and on GLP1R [2] were above 4 nM and above 1000 nM, respectively. As for `N#Cc1ccc(COc2cccc(N3C4CCC3CN(Cc3nc5ccc(C(=O)O)cc5n3C[C@@H]3CCO3)C4)c2)c(F)c1` [Compound 2-35, 2-((−8-(3-((4-cyano-2-fluorobenzyl)oxy)phenyl)-3,8-diazabicyclo[3.2.1]octan-3-yl)methyl)-1-(((S)-oxetan-2-yl)methyl)-1H-benzo[d]imidazole-6-carboxylic acid], the EC50 at GLP1R [1] is 2.79 nM; on GLP1R [2], above 1000 nM. Consider `COc1nc(C#N)ccc1COc1cccc(C23CCN(Cc4nc5ccc(C(=O)O)cc5n4C[C@@H]4CCO4)CC2C3)n1` (stereo partly drawn) [Compound 1-13, 2-((6-(6-((6-cyano-2-methoxypyridin-3-yl)methoxy)pyridin-2-yl)-3-azabicyclo[4.1.0]heptan-3-yl)methyl)-1-(((S)-oxetan-2-yl)methyl)-1H-benzo[d]imidazole-6-carboxylic acid], for which the EC50 on GLP1R [2] amounted to 35.8 nM. In the case of `COc1cc(C#N)ccc1COc1ccnc(C23CCN(Cc4nc5ccc(C(=O)O)cc5n4C[C@@H]4CCO4)CC2C3)n1` (single isomer, unassigned) [Compound 1-26-A], the EC50 on GLP1R [2] was found to be 102 nM.
